In BindingDB's records for doi:10.1021/jm00080a021 (Notre-Dame Hospital Research, 1992):

Target: Ribonucleoside-diphosphate reductase large subunit R1 (Herpes simplex virus type 1)
Experiment: Inhibitory concentration against HSV-1 ribonucleotide reductase R1 protein binding

| Compound | IC50 [µM] |
| --- | --- |
| CC[C@H](C)[C@H](NC(=O)[C@@H](NC(=O)[C@@H](NC(=O)CNC(=O)[C@H](C)NC(=O)[C@H](Cc1ccc(O)cc1)NC(C)=O)[C@@H](C)O)C(C)C)C(=O)N[C@@H](CC(N)=O)C(=O)N[C@@H](CC(N)=O)C(=O)N[C@@H](CC(C)C)C(=O)O | 640 |
| CC(=O)N[C@@H](Cc1ccc(O)cc1)C(=O)N[C@@H](C)C(=O)NCC(=O)N[C@H](C(=O)N[C@H](C(=O)N[C@@H](C(=O)N[C@@H](CC(N)=O)C(=O)N[C@@H](CC(=O)O)C(=O)N[C@@H](CC(C)C)C(=O)O)C(C)C)C(C)C)[C@@H](C)O [2-{2-[2-(2-{2-[2-(2-{2-[2-Acetylamino-3-(4-hydroxy-phenyl)-propionylamino]-propionylamino}-acetylamino)-3-hydroxy-butyrylamino]-3-methyl-butyrylamino}-3-methyl-butyrylamino)-3-carbamoyl-propionylamino]-3-carboxy-propionylamino}-4-methyl-pentanoicacid] | > 1000 |
| CC[C@H](C)[C@H](NC(=O)[C@@H](NC(=O)[C@@H](NC(=O)CNC(=O)[C@H](C)NC(=O)[C@H](Cc1ccc(O)cc1)NC(C)=O)[C@@H](C)O)C(C)C)C(=O)N[C@@H](CC(N)=O)C(=O)N[C@@H](CCC(=O)O)C(=O)N[C@@H](CC(C)C)C(=O)O [2-{2-[2-(2-{2-[2-(2-{2-[2-Acetylamino-3-(4-hydroxy-phenyl)-propionylamino]-propionylamino}-acetylamino)-3-hydroxy-butyrylamino]-3-methyl-butyrylamino}-3-methyl-pentanoylamino)-3-carbamoyl-propionylamino]-4-carboxy-butyrylamino}-4-methyl-pentanoicacid] | 650 |
| CC[C@H](C)[C@H](NC(=O)[C@@H](NC(=O)[C@@H](NC(=O)CNC(=O)[C@H](C)NC(=O)[C@H](Cc1ccc(O)cc1)NC(C)=O)[C@@H](C)O)C(C)C)C(=O)N[C@@H](CO)C(=O)N[C@@H](CC(=O)O)C(=O)N[C@@H](CC(C)C)C(=O)O [2-{2-[2-(2-{2-[2-(2-{2-[2-Acetylamino-3-(4-hydroxy-phenyl)-propionylamino]-propionylamino}-acetylamino)-3-hydroxy-butyrylamino]-3-methyl-butyrylamino}-3-methyl-pentanoylamino)-3-hydroxy-propionylamino]-3-carboxy-propionylamino}-4-methyl-pentanoicacid] | 395 |
| Ac-YAGTVINCL-OH [2-{2-[2-(2-{2-[2-(2-{2-[2-Acetylamino-3-(4-hydroxy-phenyl)-propionylamino]-propionylamino}-acetylamino)-3-hydroxy-butyrylamino]-3-methyl-butyrylamino}-3-methyl-pentanoylamino)-3-carbamoyl-propionylamino]-3-mercapto-propionylamino}-4-methyl-pentanoic acid] | > 1000 |
| Ac-YAGTVINSL-OH [2-{2-[2-(2-{2-[2-(2-{2-[2-Acetylamino-3-(4-hydroxy-phenyl)-propionylamino]-propionylamino}-acetylamino)-3-hydroxy-butyrylamino]-3-methyl-butyrylamino}-3-methyl-pentanoylamino)-3-carbamoyl-propionylamino]-3-hydroxy-propionylamino}-4-methyl-pentanoic acid] | > 1000 |
